# Source: ChEMBL document CHEMBL1201862, “PubChem BioAssay data set” (2004)
# Activity calls are given as the source filed them. Rule as the data show it: actives have a measured IC50 and inactives only a lower limit.
# Target: Envelope glycoprotein gp160 (Human immunodeficiency virus 1, UniProt Q6QLK5)
# Assay: cell-free HIV fusion peptide-binding blockers – biochemical, uHTS, fluorescence dequenching, […] (AID 1986)
# Envelope glycoprotein gp160, sequence (Q6QLK5 whole entry, the tested form may be a part): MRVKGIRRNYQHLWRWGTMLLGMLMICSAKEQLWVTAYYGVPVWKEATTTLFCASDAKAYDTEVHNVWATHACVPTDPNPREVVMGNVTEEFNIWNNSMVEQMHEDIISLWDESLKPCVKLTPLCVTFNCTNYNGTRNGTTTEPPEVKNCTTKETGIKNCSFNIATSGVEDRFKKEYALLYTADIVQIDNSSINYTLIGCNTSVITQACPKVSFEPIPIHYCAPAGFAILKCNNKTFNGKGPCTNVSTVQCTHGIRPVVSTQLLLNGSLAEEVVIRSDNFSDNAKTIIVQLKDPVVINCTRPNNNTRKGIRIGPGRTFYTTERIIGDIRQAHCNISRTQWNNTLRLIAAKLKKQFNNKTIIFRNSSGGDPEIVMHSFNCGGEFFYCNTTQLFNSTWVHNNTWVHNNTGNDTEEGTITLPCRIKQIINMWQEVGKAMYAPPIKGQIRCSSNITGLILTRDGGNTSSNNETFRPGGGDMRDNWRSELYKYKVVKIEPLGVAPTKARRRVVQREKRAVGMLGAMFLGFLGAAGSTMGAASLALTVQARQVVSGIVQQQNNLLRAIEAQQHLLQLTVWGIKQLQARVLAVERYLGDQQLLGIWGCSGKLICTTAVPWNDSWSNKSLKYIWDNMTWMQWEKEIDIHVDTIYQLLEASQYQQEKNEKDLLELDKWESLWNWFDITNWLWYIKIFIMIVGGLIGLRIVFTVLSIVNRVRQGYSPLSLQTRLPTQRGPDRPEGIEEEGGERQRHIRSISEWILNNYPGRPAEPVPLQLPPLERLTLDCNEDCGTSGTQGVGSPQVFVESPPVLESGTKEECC
compound,measurement,value
Cc1c(CCC(=O)O)c(=O)oc2c(C)c3occ(-c4ccc(Br)cc4)c3cc12,IC50,21.3 µM (active)
